Reference: patent publication US5686482A, “N-(3-pyrrolidinyl) benzamide derivative” (priority 1994, dated 1997)
Like-named read-outs stand apart in the source and are kept apart here.

Legend:
[1] = test system: apomorphine-induced climbing behavior; assay: antagonism test on apomorphine-induced climbing behavior; type: in vivo; conditions: Mus musculus; SC administration, 15 minutes before apomorphine 2 mg/kg SC; ICR mice; measured during 30 minutes
Procedure: 2) Antagonism test on apomorphine-induced climbing behavior
Each test compound was administered to ICR mice (body weight, around 35 g; Japan SLC) by subcutaneous injection and, after 15 minutes, apomorphine (2 mg/kg) was subcutaneously injected.

schizophrenia patients = conditions: cited from earlier work
D2 receptor = biological target: T1, D2 receptor (Rattus norvegicus, UniProt P61169); assay: receptor binding test, D2 receptor; conditions: cloned receptor membrane, [125I]iodosulpride or [3H]YM-09151-2, 25° C., 1 hour
T1 construct: expressed in transfected cells
T1 sequence (P61169 whole entry): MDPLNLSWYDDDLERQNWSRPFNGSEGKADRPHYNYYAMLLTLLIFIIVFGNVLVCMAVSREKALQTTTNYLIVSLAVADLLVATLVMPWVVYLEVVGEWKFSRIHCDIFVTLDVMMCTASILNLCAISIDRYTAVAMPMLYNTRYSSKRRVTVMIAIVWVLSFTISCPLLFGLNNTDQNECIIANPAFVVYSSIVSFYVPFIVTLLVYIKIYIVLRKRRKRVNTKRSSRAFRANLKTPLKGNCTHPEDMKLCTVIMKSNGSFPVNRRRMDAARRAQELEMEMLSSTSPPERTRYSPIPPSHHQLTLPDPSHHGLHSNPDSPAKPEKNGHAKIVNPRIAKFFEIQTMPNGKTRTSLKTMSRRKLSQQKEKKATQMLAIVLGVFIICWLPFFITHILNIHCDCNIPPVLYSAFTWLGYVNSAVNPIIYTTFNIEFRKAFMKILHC

D3 receptor = biological target: T2, D3 receptor (Rattus norvegicus, UniProt P19020); assay: receptor binding test, D3 receptor; conditions: for Ki: cloned receptor membrane, [125I]iodosulpride or [3H]YM-09151-2, 25° C., 1 hour; for Ratio D2/D3: ratio of Ki values
T2 construct: expressed in transfected cells
T2 sequence (P19020 whole entry): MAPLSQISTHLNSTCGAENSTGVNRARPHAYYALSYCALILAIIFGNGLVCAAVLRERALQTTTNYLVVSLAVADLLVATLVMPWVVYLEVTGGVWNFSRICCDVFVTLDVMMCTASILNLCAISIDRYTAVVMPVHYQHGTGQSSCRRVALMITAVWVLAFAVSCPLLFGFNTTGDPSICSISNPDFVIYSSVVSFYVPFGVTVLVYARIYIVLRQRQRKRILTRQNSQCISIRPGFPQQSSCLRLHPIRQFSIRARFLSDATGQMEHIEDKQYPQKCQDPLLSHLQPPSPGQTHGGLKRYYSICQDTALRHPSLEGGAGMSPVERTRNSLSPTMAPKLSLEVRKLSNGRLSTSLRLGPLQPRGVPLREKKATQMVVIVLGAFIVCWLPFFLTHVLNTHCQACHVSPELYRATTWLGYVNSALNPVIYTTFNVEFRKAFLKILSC
Procedure: Using membrane samples of these cells, affinity of compounds for D2 receptor, D3 receptor and D4 receptor was examined by a receptor binding test. The receptor binding test was carried out in the following manner. A D2 receptor, D3 receptor or D4 receptor membrane sample and [^125 I] iodosulpride or [^3 H] YM-09151-2 (trade name, manufactured by Daiichi Pure Chemicals) were incubated at 25° C. for 1 hour in the presence of each compound to be tested. The reaction solution was filtered through a glass filter to measure the amount of radioisotope on the filter.

D4 receptor = biological target: T3, D4 receptor (Homo sapiens, UniProt P21917); assay: receptor binding test, D4 receptor; conditions: for Ki: cloned receptor membrane, [125I]iodosulpride or [3H]YM-09151-2, 25° C., 1 hour; for Ratio D2/D4: ratio of Ki values
T3 sequence (P21917 1-419): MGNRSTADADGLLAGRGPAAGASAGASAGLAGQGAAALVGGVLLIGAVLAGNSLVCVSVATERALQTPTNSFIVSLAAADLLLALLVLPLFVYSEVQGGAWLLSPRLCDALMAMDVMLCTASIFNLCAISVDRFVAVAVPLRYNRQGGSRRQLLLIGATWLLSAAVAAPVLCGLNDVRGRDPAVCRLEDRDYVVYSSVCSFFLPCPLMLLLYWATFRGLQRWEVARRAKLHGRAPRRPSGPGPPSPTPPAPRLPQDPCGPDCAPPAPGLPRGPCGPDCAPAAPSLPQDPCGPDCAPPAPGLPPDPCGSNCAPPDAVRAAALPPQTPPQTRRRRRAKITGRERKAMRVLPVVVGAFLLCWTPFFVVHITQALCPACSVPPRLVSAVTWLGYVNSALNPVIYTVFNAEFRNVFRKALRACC

[2] = test system: D2, D3 and D4 subtype receptors; conditions: existing antipsychotic agents; cited from earlier work

SMILES	ED50 [1]	effect on negative symptoms (schizophrenia patients; clinical)	side effects such as extrapyramidal symptoms (schizophrenia patients; clinical)	Ki (D2 receptor)	Ki (D3 receptor)	Ratio D2/D3 (D3 receptor)	Ki (D4 receptor)	Ratio D2/D4 (D4 receptor)	relative affinity for D2, D3 and/or D4 receptor [2]	side effects such as extrapyramidal symptoms (schizophrenia patients; human, in vivo)
CN1CCN(C2=Nc3cc(Cl)ccc3Nc3ccccc32)CC1 [Clozapine]	6.8 mg/kg	effective for patients mainly having negative symptoms	small extrapyramidal symptoms	–	–	–	–	–	–	–
COc1cc(OC)c([N+](=O)[O-])cc1C(=O)N[C@H]1CCN(C2C3CCCC2CCC3)C1 (stereo partly drawn) [Example 7, (S)-N-[1-(bicyclo[3.3.1]non-9-yl)-3-pyrrolidinyl]-2,4-dimethoxy-5-nitrobenzamide]	–	–	–	72 nM	1.5 nM	48	1.1 nM	65	–	–
COc1cc(OC)c(C(=O)N[C@H]2CCN(C3C4CCCC3CCC4)C2)cc1C#N (stereo partly drawn) [Example 19, (S)-N-[1-(bicyclo[3.3.1]non-9-yl)-3-pyrrolidinyl]-5-cyano-2,4-dimethoxybenzamide]	–	–	–	350 nM	4 nM	88	2.6 nM	135	–	–
CNc1cc(C(=O)N[C@H]2CCN(C3C4CCCC3CCC4)C2)c(OC)cc1OC (stereo partly drawn) [Example 30, (S)-N-[1-(bicyclo[3.3.1]non-9-yl)-3-pyrrolidinyl]-2,4-dimethoxy-5-methylaminobenzamide hemifumarate]	1.8 mg/kg	–	–	34 nM	3.5 nM	9.7	1.8 nM	19	–	–
O=C(CCCN1CCC(O)(c2ccc(Cl)cc2)CC1)c1ccc(F)cc1 [haloperidol]	–	–	highly frequent onset of side effects	–	–	–	–	–	high affinity for D2 receptor in comparison with D3 receptor and/or D4 receptor	–
CCN1CCCC1CNC(=O)c1cc(S(N)(=O)=O)ccc1OC (stereo not drawn) [sulpiride]	–	certain degree of effects on negative symptoms	–	–	–	–	–	–	its affinity for D3 and/or D4 receptor is similar to its affinity for D2 receptor	relatively small side effects
